Results: paper PMC3914206

Assays:
Assay type in all cases: binding
Conditions in all cases: Compound Concentration 10 µM
[1] = biological target: T1, panel of 442 kinases (Homo sapiens, UniProt P35916)
T1 construct: purchased KINOMEscan
Text: (§1) We assessed the selectivity of members of this scaffold using the KINOMEscan methodology across a near comprehensive panel of 442 kinases [[18,27]].

[2] = biological target: T2, panel of 442 kinases (Homo sapiens, UniProt P42679)
T2 construct: purchased KINOMEscan
T2 sequence (P42679 1-507): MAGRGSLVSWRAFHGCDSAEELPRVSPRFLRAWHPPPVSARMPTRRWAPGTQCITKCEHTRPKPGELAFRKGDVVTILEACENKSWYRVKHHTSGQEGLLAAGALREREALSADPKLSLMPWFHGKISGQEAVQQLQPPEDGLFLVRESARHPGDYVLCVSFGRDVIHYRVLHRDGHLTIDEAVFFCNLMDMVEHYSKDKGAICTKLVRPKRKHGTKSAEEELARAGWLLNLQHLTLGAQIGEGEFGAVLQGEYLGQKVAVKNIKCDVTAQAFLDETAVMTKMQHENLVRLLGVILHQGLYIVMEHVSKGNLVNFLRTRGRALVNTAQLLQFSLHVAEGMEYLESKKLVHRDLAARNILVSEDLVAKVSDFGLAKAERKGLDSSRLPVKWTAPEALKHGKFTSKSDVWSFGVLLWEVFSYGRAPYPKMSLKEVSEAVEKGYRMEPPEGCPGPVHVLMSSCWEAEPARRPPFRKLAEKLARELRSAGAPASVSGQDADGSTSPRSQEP
Text: as §1

[3] = biological target: T3, panel of 442 kinases (Homo sapiens, UniProt Q00536)
T3 construct: purchased KINOMEscan
Text: as §1

T3 sequence (Q00536 whole entry): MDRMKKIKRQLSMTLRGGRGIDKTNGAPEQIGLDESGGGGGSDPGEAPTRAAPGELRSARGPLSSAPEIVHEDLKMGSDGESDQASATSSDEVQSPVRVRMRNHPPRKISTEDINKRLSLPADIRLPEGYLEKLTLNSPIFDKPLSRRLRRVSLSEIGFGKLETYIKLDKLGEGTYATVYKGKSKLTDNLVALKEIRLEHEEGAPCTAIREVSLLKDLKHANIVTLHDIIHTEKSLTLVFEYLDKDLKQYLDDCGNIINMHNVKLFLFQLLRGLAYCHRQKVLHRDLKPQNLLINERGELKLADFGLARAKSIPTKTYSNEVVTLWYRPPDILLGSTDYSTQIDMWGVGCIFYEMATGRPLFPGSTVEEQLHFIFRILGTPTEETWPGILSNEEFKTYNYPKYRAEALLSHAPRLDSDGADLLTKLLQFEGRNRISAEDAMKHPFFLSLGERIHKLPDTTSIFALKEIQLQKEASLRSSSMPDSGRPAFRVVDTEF
T1 sequence (P35916 25-1363): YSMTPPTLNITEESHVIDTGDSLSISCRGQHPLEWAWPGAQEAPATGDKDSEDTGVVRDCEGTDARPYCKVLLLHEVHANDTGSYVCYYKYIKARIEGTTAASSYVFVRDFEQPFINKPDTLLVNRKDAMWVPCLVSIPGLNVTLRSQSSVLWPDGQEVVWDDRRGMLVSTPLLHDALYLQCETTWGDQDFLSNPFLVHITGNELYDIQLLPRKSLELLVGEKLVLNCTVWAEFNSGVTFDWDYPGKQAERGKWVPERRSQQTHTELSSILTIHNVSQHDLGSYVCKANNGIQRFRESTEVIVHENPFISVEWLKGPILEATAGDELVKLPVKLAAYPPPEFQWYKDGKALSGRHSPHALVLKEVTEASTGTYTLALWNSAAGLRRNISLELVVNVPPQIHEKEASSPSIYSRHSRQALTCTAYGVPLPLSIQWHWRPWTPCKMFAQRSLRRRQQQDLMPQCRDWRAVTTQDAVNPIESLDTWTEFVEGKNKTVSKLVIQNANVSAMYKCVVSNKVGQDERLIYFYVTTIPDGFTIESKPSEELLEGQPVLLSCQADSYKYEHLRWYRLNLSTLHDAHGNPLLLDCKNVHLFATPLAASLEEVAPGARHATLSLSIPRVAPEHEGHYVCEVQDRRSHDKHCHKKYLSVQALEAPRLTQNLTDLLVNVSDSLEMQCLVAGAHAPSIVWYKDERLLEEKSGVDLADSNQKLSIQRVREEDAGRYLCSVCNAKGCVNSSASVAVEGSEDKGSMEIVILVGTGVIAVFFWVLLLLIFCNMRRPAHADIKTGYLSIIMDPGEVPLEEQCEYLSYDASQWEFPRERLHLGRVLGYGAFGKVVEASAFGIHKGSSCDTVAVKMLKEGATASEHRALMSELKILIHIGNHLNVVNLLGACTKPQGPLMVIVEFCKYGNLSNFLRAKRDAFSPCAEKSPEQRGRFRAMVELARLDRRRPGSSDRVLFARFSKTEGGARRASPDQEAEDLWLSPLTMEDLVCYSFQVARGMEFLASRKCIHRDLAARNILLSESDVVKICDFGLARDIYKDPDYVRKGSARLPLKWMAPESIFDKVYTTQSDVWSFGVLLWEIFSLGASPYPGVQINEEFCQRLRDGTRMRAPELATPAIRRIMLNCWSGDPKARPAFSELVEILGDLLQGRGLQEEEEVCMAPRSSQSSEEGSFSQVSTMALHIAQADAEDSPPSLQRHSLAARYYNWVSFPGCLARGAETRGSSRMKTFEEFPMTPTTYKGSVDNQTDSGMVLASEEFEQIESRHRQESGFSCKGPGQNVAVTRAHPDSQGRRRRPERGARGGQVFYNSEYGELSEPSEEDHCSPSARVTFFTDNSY

Row | Structure (SMILES) | KINOMEscan: FLT4 [1] | KINOMEscan: CTK [2] | KINOMEscan: PCTK1 [3]
1 | COc1cc(C(=O)N2CCC(N3CCN(C)CC3)CC2)ccc1Nc1ncc2c(n1)N(C)c1ccccc1C(=O)N2C [15 (LRRK2-IN-1)] | 100 | 100 | 96
2 | COc1cc(C(=O)N2CCC(N3CCN(C)CC3)CC2)ccc1Nc1ncc2c(n1)N(C1CCCC1)c1ccccc1C(=O)N2C [Compound 25, 11-cyclopentyl-2-((2-methoxy-4-(4-(4-methylpiperazin-1-yl)piperidine-1-carbonyl)phenyl)amino)-5-methyl-5H-benzo[e]pyrimido[5,4-b][1,4]diazepin-6(11H)-one] | 100 | 100 | 100
3 | CCOc1cc(C(=O)N2CCC(N3CCN(C)CC3)CC2)ccc1Nc1ncc2c(n1)N(C1CCCC1)c1ccccc1C(=O)N2C [Compound 26] | 100 | 89 | 100
